Assay results from patent US20260183408A1, “POLYPEPTIDE AND USE THEREOF” (SHENZHEN CHENYANG BIOLOGICAL TECHNOLOGY CO., LTD, priority 2022, published 2026).

System: CRS mice
Experiment: Open field test (OFT, total distance)
Assay type: in vivo, mouse
Details: single intraperitoneal 3 nmol/g, 1 hour after treatment (FIG. 12)
Procedure: The C57BL/6J mice were horizontally fixed for 6 h (from 10 to 16 o'clock) in a first acrylic restraint which is cylindrical and flat-bottomed (25×90 mm) every day for 2 weeks. The filter had several slots which could adapt to the size of each mouse to firmly restrain the mouse and inhibit body movements of the limb and trunk without causing pain. Immediately after being restrained, the mice were sent back to their cages. Unrestrained mice (control) stayed in their cages when no CRS procedure was performed. Neither the control mice nor the CRS mice could have access to food and water during the CRS exposure.
The C57BL/6J mice were subjected to various stress including restraint (for 4 h), cage tilting (for 45 times, with 12 h each time), light-dark cycle reversal (once), flash (for 12 h), and dirty cage (for 2 times, with 14 h each time). The protocol lasted 6 weeks. Control mice were not subjected to corresponding stress.
The mice were treated with TAT or TAT-D2R-KL (single intraperitoneal administration at 3 nmol/g in both cases). […]
OFT (for testing the total distance): The mice were acclimated to the experimental environment for 1 h and placed in a chamber of 45 cm×45 cm×30 cm. A video was recorded for 5 min to observe the motional activity of the mice. The total distance covered by the mice was measured, analyzed and expressed in millimeters.

With “TAT-D2R-KL: C-terminus of the KL (K226-L240) region of D2R fused to the transduction domain of HIV-1 Tat protein (SEQ ID NO: 5)” the “overall movement ability (total distance)” value was “had no effect”.
